From patent US20220251080A1, “SUBSTANTIALLY PURE VENETOCLAX AND AMORPHOUS VENETOCLAX IN A FREE DRUG PARTICULAT E FORM” (DR. REDDY'S LABORATORIES LIMITED, priority 2019, published 2022)

Tests used:
[1] = Flow property measurement of powder (bulk density, tapped density, Hausner ratio, Carr's index); format: physicochemical; conditions: for Carr's index: (tapped density-bulk density)/tapped density×100; for Tapped density: after mechanical tapping; for Hausner ratio: calculated from bulk and tapped density; for Bulk density: untapped powder sample
Source text: (§1) As per the flow property measurement, powder obtained by reactive agglomeration has better flow indices (Carr's index and Hausner ratio) than powder obtained by solvent-antisolvent process, disclosed in example 24 of WO2017212431.
The term “bulk density” as used herein refers to the ratio of the mass to the volume (including the interparticulate void volume) of an untapped powder sample.
The term “tapped density” as used herein and it is obtained by mechanically tapping a graduated cylinder containing the sample until little further volume change is observed.
The tapping can be performed using different methods. The tapped density is calculated as mass divided by the final volume of the powder.
The term “carr's index” as used herein and it is calculated using below formula Carr Index =(tapped density-bulk density)/tapped density×100.
The term “hausner ratio” as used herein and it is calculated using below formula Hausner Ratio […]

[2] = Filtration characteristics (specific cake resistance); format: physicochemical; conditions: filtration of the suspension from the process
Source text: as §1
The term “specific cake resistance” as used herein refers to filter cake is formed by the substances that are retained on a filter. The filter cake grows in the course of filtration, becoming thicker as particulate matter is retained. With increasing layer thickness, the flow resistance of the filter cake increases. Specific cake resistance is a measure of this resistance offered by cake towards the flow.

| Structure (SMILES) | Carr's index [1] | Tapped density [1] | Hausner ratio [1] | Bulk density [1] | Specific cake resistance [2] |
| --- | --- | --- | --- | --- | --- |
| CC1(C)CCC(CN2CCN(c3ccc(C(=O)NS(=O)(=O)c4ccc(NCC5CCOCC5)c([N+](=O)[O-])c4)c(Oc4cnc5[nH]ccc5c4)c3)CC2)=C(c2ccc(Cl)cc2)C1 [Amorphous venetoclax obtained by Solvent-Anti solvent Proces] [4-(4-{[2-(4-chlorophenyl)-4,4dimethylcyclohex-1-en-1-yl]methyl}piperazin-1-yl)-N-({3-nitro-4-[(tetrahydro-2H-pyran-4ylmethyl)amino]phenyl}sulfonyl)-2-(1H-pyrrolo[2,3-1)]pyridin-5-yloxy)benzamide)] | 29.8 | 0.289 g/mL | 1.4 | 0.203 g/mL | Filter media clogged |
| CC1(C)CCC(CN2CCN(c3ccc(C(=O)NS(=O)(=O)c4ccc(NCC5CCOCC5)c([N+](=O)[O-])c4)c(Oc4cnc5[nH]ccc5c4)c3)CC2)=C(c2ccc(Cl)cc2)C1 [Amorphous venetoclax obtained by reactive agglomeration proc] [4-(4-{[2-(4-chlorophenyl)-4,4dimethylcyclohex-1-en-1-yl]methyl}piperazin-1-yl)-N-({3-nitro-4-[(tetrahydro-2H-pyran-4ylmethyl)amino]phenyl}sulfonyl)-2-(1H-pyrrolo[2,3-1)]pyridin-5-yloxy)benzamide)] | 25.8 | 0.442 g/mL | 1.3 | 0.328 g/mL | 2.73E+10 m/Kg |
